# Several values for one entry are separate records, joined by “and”; a condition that tells them apart may be missing. Identical values can stand only once. Like-named read-outs stand apart in the source and are kept apart here.
# Experiments:
# [1] = system: laboratory-adapted HIV-1 strains; experiment: microbe, parasite or virus in culture; type: cell-based
# HIV-1IIIB = experiment: CD4-dependent CXCR4-tropic HIV-1 cell-cell transmission assay; type: cell-based; details: read-out: IC50, CXCR4-tropic HIV-1 cell-cell transmission; Ghost X4/R5 and H9/HIV-1IIIB, p24
# [2] = molecular target: HIV-1 reverse transcriptase (RT) (Human immunodeficiency virus type 1 group M subtype B, UniProt P12497); experiment: HIV-1 reverse transcriptase; details: read-out: IC50, HIV-1 reverse transcriptase (RT) assay
# MT-2 cells = experiment: Cytotoxicity in MT-2 cells; type: cell-based
# [3] = system: HIV-1ADA (CCR5-tropic) pseudovirus; experiment: Single-cycle infection assay in U87-CD4-CCR5 cells; details: U87-CD4-CCR5, HIV-1ADA
# VSV-G = experiment: microbe, parasite or virus in culture; type: cell-based; details: control, VSV-G envelope pseudovirus
# YU2 core gp120 = experiment: SPR: binding of YU2 core gp120 to captured mAb 17b in presence of compounds; parameters: species or system HIV-1; details: sCD4 15-fold excess, compounds 50-fold excess
# HIV-1 Env pseudoviruses [4] = details: data previously published ref 19, cited from earlier work
# HIV-1ADA = experiment: CD4-dependent CCR5-tropic HIV-1 cell-cell transmission assay; type: cell-based; details: read-out: IC50, CCR5-tropic HIV-1 cell-cell transmission; Ghost X4/R5 and MOLT-4/HIV-1ADA, p24
# U87-CD4-CCR5 cells = experiment: Cytotoxicity in U87-CD4-CCR5 cells; type: cell-based
# [5] = system: lab-adapted and primary HIV-1 isolates; experiment: microbe, parasite or virus in culture; type: cell-based; details: PBMC
# A-MLV = experiment: microbe, parasite or virus in culture; type: cell-based; details: control, A-MLV envelope pseudovirus
# PBMC = experiment: Cytotoxicity in PBMCs; type: cell-based, human
# [6] = system: HIV-1HXB2 (CXCR4-tropic) pseudovirus; experiment: Single-cycle infection assay in U87-CD4-CXCR4 cells; details: U87-CD4-CXCR4, HIV-1HXB2
# HIV-1 Env pseudoviruses [7] = type: cell-based
# HIV-1 integrase = HIV-1 integrase (Human immunodeficiency virus type 1 group M subtype B, UniProt P04585); experiment: HIV-1 integrase assay; type: biochemical; details: read-out: IC50, HIV-1 integrase assay
# [8] = system: fusion between MAGI-CCR5 and HL 2/3 cells; experiment: HIV-1 cell-cell fusion assay; type: cell-based; details: read-out: IC50, cell-cell fusion assay; MAGI-CCR5 and HL 2/3 cells
# TZM-bl cells = experiment: Cytotoxicity in TZM-bl cells; type: cell-based
# U87-CD4-CXCR4 cells = experiment: Cytotoxicity in U87-CD4-CXCR4 cells; type: cell-based
structure (smiles),measurement,setting,value
CC1(C)CC(NC(=O)C(=O)Nc2ccc(Cl)cc2)CC(C)(C)N1 [NBD-556],IC50,"[1]; RT inhibitor-resistant isolate AZT-R, subtype B, MT-2, X4",58 ± 14.3 µM
same,IC50,"[1]; fusion inhibitor-resistant isolate pNL4-3 gp41(36G)V38E,N42S, subtype B, MT-2, X4",11 ± 0.9 µM
same,IC50,"[1]; laboratory strain MN, subtype B, MT-2, X4",15.9 ± 1.6 µM
same,IC50,"[1]; laboratory strain RF, subtype B, MT-2, R5X4",18.7 ± 1.3 µM
same,IC50,"[1]; laboratory strain SF2, subtype B, MT-2, R5X4",≥ 118 µM
same,IC50,"[1]; protease inhibitor-resistant isolate HIV-1RF/L-323-12-3, subtype B, MT-2, X4",< 59 µM
same,IC50,HIV-1IIIB,~60 µM
same,IC50,[2],> 200 µM
same,CC50,MT-2 cells,> 280 µM
same,IC50,[3],7.4 ± 0.8 µM
same,IC50,VSV-G,> 60 µM
same,enhancement of mAb 17b binding to YU2 core gp120 (in words),YU2 core gp120,highest enhancement
same,IC50,"HIV-1 Env pseudoviruses [4]; subtype A, NIH #11887, Q259env.w6",6.9 ± 0.9 µM
same,IC50,"HIV-1 Env pseudoviruses [4]; subtype A/D, NIH #11901, QA790.204I.ENV.A4",12.3 ± 1.8 µM
same,IC50,"HIV-1 Env pseudoviruses [4]; subtype A/D, NIH #11903, QA790.204I.ENV.C8",5 ± 1 µM
same,IC50,"HIV-1 Env pseudoviruses [4]; subtype A/D, NIH #11904, QA790.204I.ENV.E2",7.1 ± 0.5 µM
same,IC50,"HIV-1 Env pseudoviruses [4]; subtype B, NIH #11024, AC10.0, clone 29",8.9 ± 3 µM
same,IC50,"HIV-1 Env pseudoviruses [4]; subtype B, NIH #11038, pCAAN5342 clone A2",2.4 ± 0.3 µM
same,IC50,"HIV-1 Env pseudoviruses [4]; subtype B, NIH #11058, SC422661.8",4.8 ± 0.4 µM
same,IC50,"HIV-1 Env pseudoviruses [4]; subtype B, NIH #11578, pWEAUd15.410.5017, R5X4-tropic",4.9 ± 0.8 µM
same,IC50,"HIV-1 Env pseudoviruses [4]; subtype D, NIH #11913, QA465.59M.ENV.A1",4.8 ± 0.2 µM
same,IC50,HIV-1ADA,~60 µM
same,CC50,U87-CD4-CCR5 cells,~60 µM
same,IC50,"[5]; laboratory strain 89.6, subtype B, R5X4",4.8 ± 1 µM
same,IC50,"[5]; laboratory strain BaL, subtype B, R5",≥ 118 µM
same,IC50,"[5]; laboratory strain SF162, subtype B, R5",48.9 ± 7.3 µM
same,IC50,"[5]; primary isolate 92US657, subtype B, R5",48 ± 1.65 µM
same,IC50,"[5]; primary isolate 93MW959, subtype C, R5",57.2 ± 8.7 µM
same,IC50,"[5]; primary isolate 93TH060, subtype E, R5",> 45 µM
same,IC50,"[5]; primary isolate RU570, subtype G, R5",19.5 ± 2.3 µM
same,IC50,A-MLV,> 60 µM
same,CC50,PBMC,> 280 µM
same,IC50,[6],9.5 ± 0.6 µM
same,IC50,HIV-1 Env pseudoviruses [7],11.5 µM and 9.4 µM
same,IC50,"HIV-1 Env pseudoviruses [7]; TZM-bl, HIV-1HXB2",6.9 ± 0.9 µM
same,share of viruses showing sensitivity at ≤3 μM,HIV-1 Env pseudoviruses [7]; panel of 56 HIV-1 Env pseudoviruses,7%
same,IC50,"HIV-1 Env pseudoviruses [7]; subtype A2/D, NIH #11906, QG393.60M.ENV.B7",3.5 ± 0.2 µM
same,IC50,"HIV-1 Env pseudoviruses [7]; subtype A2/D, NIH #11907, QG393.60M.ENV.B8",3.6 ± 0.1 µM
same,IC50,"HIV-1 Env pseudoviruses [7]; subtype A, KNH1144",20 ± 3.2 µM
same,IC50,"HIV-1 Env pseudoviruses [7]; subtype A, NIH #11888, QB726.70M.ENV.C4",20.2 ± 6 µM
same,IC50,"HIV-1 Env pseudoviruses [7]; subtype A, NIH #11889, QB726.70M.ENV.B3",11.3 ± 2.5 µM
same,IC50,"HIV-1 Env pseudoviruses [7]; subtype A, NIH #11890, QF495.23M.ENV.A1",13.6 ± 2.3 µM
same,IC50,"HIV-1 Env pseudoviruses [7]; subtype A, NIH #11891, QF495.23M.ENV.A3",27.8 ± 9.3 µM
same,IC50,"HIV-1 Env pseudoviruses [7]; subtype A, NIH #11892, QF495.23M.ENV.B2",20.4 ± 7 µM
same,IC50,"HIV-1 Env pseudoviruses [7]; subtype A/E, AA058",4.1 ± 0.8 µM
same,IC50,"HIV-1 Env pseudoviruses [7]; subtype A/E, CM244",5.6 ± 0.8 µM
same,IC50,"HIV-1 Env pseudoviruses [7]; subtype A/E, NIH #11603 (potential), CRF01_AE clone 269",10.7 ± 1.5 µM
same,IC50,"HIV-1 Env pseudoviruses [7]; subtype A/G, NIH #11601, CRF02_AG clone 263",7 ± 2.2 µM
same,IC50,"HIV-1 Env pseudoviruses [7]; subtype A/G, NIH #11602, CRF02_AG clone 266",4.6 ± 1.6 µM
same,IC50,"HIV-1 Env pseudoviruses [7]; subtype A/G, NIH #11605, CRF02_AG clone 278",6.5 ± 1.1 µM
same,IC50,"HIV-1 Env pseudoviruses [7]; subtype B, B41",4.5 ± 2 µM
same,IC50,"HIV-1 Env pseudoviruses [7]; subtype B, NIH #11018, QH0692, clone 42",2 ± 0.6 µM
same,IC50,"HIV-1 Env pseudoviruses [7]; subtype B, NIH #11022, PVO, clone 4",3.5 ± 0.7 µM
same,IC50,"HIV-1 Env pseudoviruses [7]; subtype B, NIH #11023, TRO, clone 11",4.1 ± 0.6 µM
same,IC50,"HIV-1 Env pseudoviruses [7]; subtype B, NIH #11033, pWIT04160 clone 33",4.8 ± 0.8 µM
same,IC50,"HIV-1 Env pseudoviruses [7]; subtype B, NIH #11035, PREJ04541 clone 67",3.4 ± 0.2 µM
same,IC50,"HIV-1 Env pseudoviruses [7]; subtype B, NIH #11036, pRHPA4259 clone 7",4.3 ± 0.5 µM
same,IC50,"HIV-1 Env pseudoviruses [7]; subtype B, NIH #11037, PTHR04156 clone 18",8.4 ± 2.4 µM
same,IC50,"HIV-1 Env pseudoviruses [7]; subtype B, NIH #11563, p1058_11.B11.1550, R5X4-tropic",1.9 ± 1 µM
same,IC50,"HIV-1 Env pseudoviruses [7]; subtype C, NIH #11306, Du156, clone 12",5 ± 0.9 µM
same,IC50,"HIV-1 Env pseudoviruses [7]; subtype C, NIH #11307, Du172, clone 17",4.8 ± 0.2 µM
same,IC50,"HIV-1 Env pseudoviruses [7]; subtype C, NIH #11308, Du422, clone 1",6.1 ± 0.5 µM
same,IC50,"HIV-1 Env pseudoviruses [7]; subtype C, NIH #11309, ZM197M.PB7",3.8 ± 0.3 µM
same,IC50,"HIV-1 Env pseudoviruses [7]; subtype C, NIH #11310, ZM214M.PL15",4.1 ± 0.7 µM
same,IC50,"HIV-1 Env pseudoviruses [7]; subtype C, NIH #11311, ZM233M.PB6",6.6 ± 0.8 µM
same,IC50,"HIV-1 Env pseudoviruses [7]; subtype C, NIH #11312, ZM249M.PL1",6.1 ± 0.3 µM
same,IC50,"HIV-1 Env pseudoviruses [7]; subtype C, NIH #11313, ZM53M.PB12",14.6 ± 1 µM
same,IC50,"HIV-1 Env pseudoviruses [7]; subtype C, NIH #11314, ZM109F.PB4",6.2 ± 0.3 µM
same,IC50,"HIV-1 Env pseudoviruses [7]; subtype C, NIH #11315, ZM135M.PL10a",2.2 ± 0.6 µM
same,IC50,"HIV-1 Env pseudoviruses [7]; subtype C, NIH #11316, CAP45.2.00.G3",9.6 ± 0.3 µM
same,IC50,"HIV-1 Env pseudoviruses [7]; subtype C, NIH #11317, CAP210.2.00.E8",5.3 ± 0.6 µM
same,IC50,"HIV-1 Env pseudoviruses [7]; subtype C, NIH #11908, QB099.391 M.ENV.B1",5.7 ± 0.9 µM
same,IC50,"HIV-1 Env pseudoviruses [7]; subtype C, NIH #11909, QB099.391 M.ENV.C8",3.6 ± 0.9 µM
same,IC50,"HIV-1 Env pseudoviruses [7]; subtype C, NIH #11910, QC406.70M.ENV.F3",3.6 ± 0.9 µM
same,IC50,"HIV-1 Env pseudoviruses [7]; subtype D, NIH #11911, QA013.70I.ENV.H1",9.4 ± 2.6 µM
same,IC50,"HIV-1 Env pseudoviruses [7]; subtype D, NIH #11912, QA013.70I.ENV.M12",5.4 ± 0.3 µM
same,IC50,"HIV-1 Env pseudoviruses [7]; subtype D, NIH #11914, QA465.59M.ENV.D1",6.1 ± 0.5 µM
same,IC50,"HIV-1 Env pseudoviruses [7]; subtype D, NIH #11916, QD435.100M.ENV.B5",4.4 ± 1 µM
same,IC50,"HIV-1 Env pseudoviruses [7]; subtype D, NIH #11918, QD435.100M.ENV.E1",6.2 ± 1.7 µM
same,IC50,HIV-1 integrase,> 200 µM
same,IC50,[8],6.5 µM
same,CC50,TZM-bl cells,~60 µM
same,CC50,U87-CD4-CXCR4 cells,~60 µM
